Patent US20130108645A1, “METHODS FOR ENHANCING AXONAL REGENERATION” (THE JOHNS HOPKINS UNIVERSITY, priority 2010, published 2013)

How the values were obtained:
WT mice = test: Sciatic nerve crush in WT mice with systemic BACE1 inhibitor infusion via Alzet pumps; type: in vivo, mouse
Description: The inhibitors were systemically administered via subcutaneous catheters from Alzet pumps implanted in the interscapular space for 7 or 15 days.
Mice were deeply anesthetized with isoflurane and left sciatic nerves in the mid thigh or at the sciatic notch level were exposed and crushed by pulling tight a loop of 8-0 nylon black sutures for 30-40 seconds. The crush sites were marked with a 10-0 nylon black suture going through the epineurium only. For sciatic nerve transection, a small ˜2 mm piece of nerve was dissected out and the two nerve stumps were turned away from each other to prevent axonal regeneration to distal stumps. The distal stumps and contralateral nerves were collected 1-15 days post-transection.
Alzet pumps were filled, primed, and implanted as previously described in Farah, J. Neurosci. […] Neurol. […] The latter compound was synthesized by the NeuroTranslational team at the Brain Science Institute at Johns Hopkins University. Both inhibitors were dissolved in DMSO. According to the manufacturer's data, the pump continuously supplied 1-30 μg/hour of inhibitor for 7 days. To minimize the delay between implantation and the onset of release, the filled pumps were incubated in 1×PBS at 37° C. for 4 hours immediately before implantation. The mice were anesthetized by inhalation of isoflurane, and an incision, about 1.5 cm long, was made in the skin on top of the interscapular space. A filled Alzet pump was implanted subcutaneously into each mouse and incisions were closed with 9 mm stainless steel wound clips.
For fluorescent microscopy and immunostaining, mice were deeply anesthetized with 10% chloral hydrate and killed by transcardial perfusion with 1×PBS followed by 2% paraformaldehyde in […] phosphate buffer, pH 7.4, for 10-15 minutes. Tissues were then postfixed in the same fixative for 4-16 hr at 4° C. Sciatic nerves and gastrocnemius muscles were cryoprotected in 30% sucrose in 1×PBS overnight and quickly frozen in cold 2-methylbutane. Tissues were frozen sectioned on a cryostat at thickness of 10 or 20 μm for sciatic nerves and 50 μm for gastrocnemius muscles. In addition, the hind feet were decalcified, cryoprotected in 30% sucrose in 1×PBS, and sectioned at 50 μm thickness. Sciatic nerves were sectioned longitudinally using a Leica cryostat (model CM3050S, Leica Microsystems, Buffalo Grove, Ill.). Gastrocnemius muscles and foot were cross-sectioned by a freezing sliding microtome (Microm HM 450, Thermo Scientific, Waltham, Mass.).
To visualize YFP-positive degenerating and regenerating axons, animals were perfused as described above and sciatic nerves were collected. Whole-mounted sciatic nerves were imaged under a confocal microscope and Z-stack images were collected through the depth of the nerves.
For ultrastructural analyses, nerves were postfixed in OsO4 and embedded in Epon. Cross sections, at 1 μm thickness, were stained for toluidine blue and examined under light microscopy with 100× oil-immersion objective. 70 nm thin sections were obtained and stained for citrate/uranyl acetate. Electron micrographs were acquired using a Hitachi 7600 or Zeiss Libra transmission electron microscope.

WT DRG explants = test: Axonal outgrowth of dorsal root ganglia (DRG) explants; settings: 50 nM, 4 days post culture
Method: Postnatal (P4-5) primary mouse DRG from WT littermate and BACE1 KO pups were established. Axonal outgrowth at 2 and 4 days post culture were measured.
Postnatal day 4-5 dorsal root ganglia (DRG) were dissected out of WT and BACE1 KO mice, and were maintained in neurobasal medium containing 2% B27 supplement and 50 ng/ml NGF (all reagents from Invitrogen, Carlsbad, Calif.). In some of the WT DRG explants, 50 nM-1 μM BACE1 inhibitor IV was added daily to the media. At least 8 explants were used for each condition. Axonal outgrowth of the DRG was monitored daily under phase-contrast microscopy, and images were acquired with Openlab software at 2 and 4 days post culture. The axon lengths were measured from the borders of the explants borders to the tips of axons using ImageJ (http://rsb.info.nih.gov/ij/).

[1] = Paclitaxel administration, body weight; type: in vivo, mouse; settings: 30 mg/kg intravenously via tail vein, 3 times a week for 2 weeks; WT and BACE1 KO mice
Method: Paclitaxel (LC laboratories) was dissolved in 100% ethonal. Equal volumes of paclitaxel solution and cremophor (Sigma-Aldrich, St. Louis, Mo.) were vigorously vortexed for 10 minutes. Ice cold saline (80% of the final volume) was added to freshly made paclitaxel/cremophor solution immediately before injection. 30 mg/kg body weight of paclitaxel in this solution was injected intravenously via tail vein at 3 times a week for 2 weeks.

## COc1ccc([C@]2(c3ccc(F)c(-c4cccnc4F)c3)N=C(N)N(C)C2=O)cc1C [WAY 258131]
WT mice; 2 weeks after sciatic nerve crush and treatment
  β tubulin III staining of intra-plantar nerves of WT foot: β tubulin III positive fibers are regenerated axons

## C[C@@H](NC(=O)c1cc(C(=O)N[C@@H](Cc2ccccc2)[C@H](O)CNC2CC2)cc(N(C)S(C)(=O)=O)c1)c1ccccc1 [BACE1 inhibitor IV]
WT mice; mouse, in vivo
  YFP-positive axonal debris in whole-mounted YFP-WT nerve: more fragmented
  post-phagocytic macrophages in electron micrograph of WT nerve: More post-phagocytic macrophages
  regenerated YFP-positive axons in whole-mounted YFP-WT nerve: numerous regenerated YFP-positive axons
  regenerated axons in electron micrograph of WT nerve: more regenerated axons
WT DRG explants
  increase of axonal outgrowth of WT DRG explants: 98.0%

## CC(=O)O[C@H]1C(=O)[C@@]2(C)[C@H]([C@H](OC(=O)c3ccccc3)[C@]3(O)C[C@H](OC(=O)[C@H](O)[C@@H](NC(=O)c4ccccc4)c4ccccc4)C(C)=C1C3(C)C)[C@]1(OC(C)=O)CO[C@@H]1C[C@@H]2O [Paclitaxel, paclitaxel]
[1]
  weight loss: no significant weight loss
